# Measurements reported in ChEMBL document CHEMBL1201862, “PubChem BioAssay data set” (2004).
#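 All cell lines were grown in 96-well plates and treated with compound for 48 hours. GI50: concentration for 50% inhibition of growth.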 The source made the active and inactive calls. Rule as the data show it: active = GI50 up to about 1.1 µM and inactive = higher.
# Legend:
# Assay in all cases: growth of human tumour cells (NCI), 48 h
# TK-10 = system: TK-10
# ACHN = system: ACHN
# MOLT-4 = system: MOLT-4
# SK-MEL-28 = system: SK-MEL-28
# UO-31 = system: UO-31
# KM-20L2 = system: KM-20L2
# SNB-19 = system: SNB-19
# HCT-15 = system: HCT-15
# UACC-62 = system: UACC-62
# IGROV-1 = system: IGROV-1
# HT-29 = system: HT-29
# HOP-92 = system: HOP-92
# NCI-H226 = system: NCI-H226
# KM12 = system: KM12
# SF-268 = system: SF-268
# HOP-62 = system: HOP-62
# OVCAR-5 = system: OVCAR-5
# K562 = system: K562
# A549 = system: A549
# OVCAR-3 = system: OVCAR-3
# UACC-257 = system: UACC-257
# SR = system: SR
# M19-MEL = system: M19-MEL
# SF-539 = system: SF-539
# OVCAR-8 = system: OVCAR-8
# HL-60 = system: HL-60
# CCRF-CEM = system: CCRF-CEM
# RXF 631 = system: RXF 631
# XF498 = system: XF498
# SN12C = system: SN12C
# NCI-H522 = system: NCI-H522
# U-251 = system: U-251
# Malme-3M = system: Malme-3M
# SK-MEL-5 = system: SK-MEL-5
# SNB-78 = system: SNB-78
# COLO 205 = system: COLO 205
# DLD-1 = system: DLD-1
# LXFL 529 = system: LXFL 529
# DMS-114 = system: DMS-114
# SF-295 = system: SF-295
# NCI-H23 = system: NCI-H23
# SK-OV-3 = system: SK-OV-3
# HCT-116 = system: HCT-116
# NCI-H460 = system: NCI-H460
# 786-0 = system: 786-0
# SW-620 = system: SW-620
# OVCAR-4 = system: OVCAR-4
# LOX IMVI = system: LOX IMVI
# RPMI-8226 = system: RPMI-8226
# M14 = system: M14
# SNB-75 = system: SNB-75
# HCC 2998 = system: HCC 2998
# RXF 393 = system: RXF 393
# CAKI-1 = system: CAKI-1
# HOP-18 = system: HOP-18
# SK-MEL-2 = system: SK-MEL-2
# A498 = system: A498
# EKVX = system: EKVX
# DMS-273 = system: DMS-273
smiles,measurement,setting,value
CC(=O)c1c(O)ccc2c1CC(CC=O)O2 (stereo not drawn),GI50,TK-10,> 100 µM (inactive)
same,GI50,ACHN,> 100 µM (inactive)
same,GI50,MOLT-4,> 100 µM (inactive)
same,GI50,SK-MEL-28,> 100 µM (inactive)
same,GI50,UO-31,63.2 µM (inactive)
same,GI50,KM-20L2,> 100 µM (inactive)
same,GI50,SNB-19,> 100 µM (inactive)
same,GI50,HCT-15,52.6 µM
same,GI50,UACC-62,28.8 µM (inactive)
same,GI50,IGROV-1,> 100 µM (inactive)
same,GI50,HT-29,37.2 µM (inactive)
same,GI50,HOP-92,34.3 µM (inactive)
same,GI50,NCI-H226,> 100 µM (inactive)
same,GI50,KM12,> 100 µM (inactive)
same,GI50,SF-268,88.5 µM (inactive)
same,GI50,HOP-62,> 100 µM (inactive)
same,GI50,OVCAR-5,> 100 µM (inactive)
same,GI50,K562,> 100 µM (inactive)
same,GI50,A549,> 100 µM (inactive)
same,GI50,OVCAR-3,48.5 µM (inactive)
same,GI50,UACC-257,> 100 µM (inactive)
same,GI50,SR,> 100 µM (inactive)
same,GI50,M19-MEL,40.1 µM (inactive)
same,GI50,SF-539,50 µM (inactive)
same,GI50,OVCAR-8,27.6 µM (inactive)
same,GI50,HL-60,> 100 µM (inactive)
same,GI50,CCRF-CEM,74.8 µM (inactive)
same,GI50,RXF 631,65 µM (inactive)
same,GI50,XF498,> 100 µM (inactive)
same,GI50,SN12C,58.9 µM (inactive)
same,GI50,NCI-H522,60.5 µM (inactive)
same,GI50,U-251,83.9 µM (inactive)
same,GI50,Malme-3M,> 100 µM (inactive)
same,GI50,SK-MEL-5,79.8 µM (inactive)
same,GI50,SNB-78,64.6 µM (inactive)
same,GI50,COLO 205,> 100 µM (inactive)
same,GI50,DLD-1,32.7 µM (inactive)
same,GI50,LXFL 529,42.9 µM (inactive)
same,GI50,DMS-114,20.1 µM (inactive)
same,GI50,SF-295,> 100 µM (inactive)
same,GI50,NCI-H23,53.6 µM (inactive)
same,GI50,SK-OV-3,> 100 µM (inactive)
same,GI50,HCT-116,19.7 µM (inactive)
same,GI50,NCI-H460,> 100 µM (inactive)
same,GI50,786-0,69.7 µM (inactive)
same,GI50,SW-620,43.9 µM (inactive)
same,GI50,OVCAR-4,98.6 µM (inactive)
same,GI50,LOX IMVI,19.9 µM (inactive)
same,GI50,RPMI-8226,45.3 µM (inactive)
same,GI50,M14,47.5 µM (inactive)
same,GI50,SNB-75,42.1 µM (inactive)
same,GI50,HCC 2998,> 100 µM (inactive)
same,GI50,RXF 393,> 100 µM (inactive)
same,GI50,CAKI-1,> 100 µM (inactive)
Cn1c(=O)c2c3oc(=O)cc(O)c3c(=O)n3c4ccccc4n(c1=O)c23,GI50,TK-10,> 100 µM (inactive)
same,GI50,ACHN,38 µM (inactive)
same,GI50,MOLT-4,33.3 µM (inactive)
same,GI50,UO-31,28.8 µM (inactive)
same,GI50,HOP-18,36.5 µM (inactive)
same,GI50,SNB-19,> 100 µM (inactive)
same,GI50,HCT-15,27.8 µM
same,GI50,SK-MEL-2,23.4 µM (inactive)
same,GI50,UACC-62,35 µM (inactive)
same,GI50,IGROV-1,44.2 µM (inactive)
same,GI50,HT-29,39.7 µM (inactive)
same,GI50,HOP-92,33.2 µM (inactive)
same,GI50,KM12,35.6 µM (inactive)
same,GI50,SF-268,47.6 µM (inactive)
same,GI50,HOP-62,> 100 µM (inactive)
same,GI50,OVCAR-5,52.5 µM (inactive)
same,GI50,K562,20.3 µM (inactive)
same,GI50,A549,45.7 µM (inactive)
same,GI50,OVCAR-3,24.6 µM (inactive)
same,GI50,UACC-257,26.1 µM (inactive)
same,GI50,A498,23.9 µM (inactive)
same,GI50,SR,20.4 µM (inactive)
same,GI50,EKVX,57.3 µM (inactive)
same,GI50,M19-MEL,38.9 µM (inactive)
same,GI50,SF-539,47.6 µM (inactive)
same,GI50,OVCAR-8,40.9 µM (inactive)
same,GI50,HL-60,21.1 µM (inactive)
same,GI50,CCRF-CEM,29.2 µM (inactive)
same,GI50,RXF 631,46.6 µM (inactive)
same,GI50,XF498,23.8 µM (inactive)
same,GI50,SN12C,34 µM (inactive)
same,GI50,U-251,41.4 µM (inactive)
same,GI50,Malme-3M,33.1 µM (inactive)
same,GI50,SK-MEL-5,28 µM (inactive)
same,GI50,SNB-78,37 µM (inactive)
same,GI50,DMS-273,31.5 µM (inactive)
same,GI50,COLO 205,27.9 µM (inactive)
same,GI50,DLD-1,35.8 µM (inactive)
same,GI50,LXFL 529,34.8 µM (inactive)
same,GI50,SF-295,> 100 µM (inactive)
same,GI50,NCI-H23,35.6 µM (inactive)
same,GI50,SK-OV-3,> 100 µM (inactive)
same,GI50,HCT-116,32.8 µM (inactive)
same,GI50,NCI-H460,37.2 µM (inactive)
same,GI50,786-0,33.3 µM (inactive)
same,GI50,SW-620,40.5 µM (inactive)
same,GI50,OVCAR-4,36.5 µM (inactive)
same,GI50,LOX IMVI,15.8 µM (inactive)
same,GI50,RPMI-8226,24 µM (inactive)
same,GI50,M14,43.3 µM (inactive)
same,GI50,SNB-75,32.2 µM (inactive)
same,GI50,HCC 2998,42.6 µM (inactive)
same,GI50,RXF 393,38.8 µM (inactive)
same,GI50,CAKI-1,32.3 µM (inactive)
